Results on six molecules are retold here after patent publication US6447749B1, “Perfluoro-alkyl containing dye molecules and galencial formulations” (Schering Aktiengesellschaft, priority 1999, dated 2002).

The nature of data set [1]: Photophysical characterization: absorption maxima and extinction coefficients (Lambda 2-spectrometer). The class given is physicochemical. The conditions noted are these: formulation with Gd-complex perfluoroalkyl derivative (WO 97/26017 Ex. 33). As for the experimental part:
(§1) The determination of the absorption maxima and extinction coefficients was carried out with a Lambda 2-spectrometer (Perkin-Elmer Company). The fluorescence properties were determined on a SPEX-fluorolog (Instruments S. A. Company, photomultiplier Hamamatsu PM928, excitation 350W xenon lamp). the determination of the fluorescence quantum yield was carried out relative to indocyanine green (O=13% in DMSO) by excitation at 585 nm (dyes with p=2) or 685 nm (dyes with p=3), in each case of solutions of concentration 2 μM in dye, and correction with the spectral sensitivity of lamp and detector.

Data set [2] in a line: Photophysical characterization: fluorescence properties and fluorescence quantum yield (SPEX-fluorolog, relative to indocyanine green). It is filed as physicochemical. The settings on record: formulation with Gd-complex perfluoroalkyl derivative (WO 97/26017 Ex. 33); for Fluorescence quantum yield: 2 μM in dye. As for the experimental part: as §1
The conditions of data set [3]: in DMSO; cited from earlier work.
[4] abbreviates: dyes 7-14 table, 5 mol % of dye.

Structures can show the parent of a compound that is named as a salt.

For the molecule `CC1(C)C(=CC=CC=CC2=[N+](CCCCS(=O)(=O)[O-])c3ccc(C(=O)N(CCOCCC(F)(F)C(F)(F)C(F)(F)C(F)(F)C(F)(F)C(F)(F)C(F)(F)C(F)(F)F)CC(O)CO)cc3C2(C)C)N(CCCCS(=O)(=O)[O-])c2ccccc21.[Na+]` (stereo not shown) [Dye 9, 5-{N-[2-(3,3,4,4,5,5,6,6,7,7,8,8,9,9,10,10,10-heptadecafluorodecyloxy)ethyl]-N-(2,3-dihydroxypropyl)aminocarbonyl}-2-{7-[1,3-dihydro-3,3-dimethyl-1-(4-sulfobutyl)-2H-indol-2-ylidene]-1,3-pentadienyl}-3,3-dimethyl-1-(4-sulfobutyl)-3H-indolium, internal salt, sodium salt], the Absorption max. in data set [1] (setting [4]) amounted to 651 nm; in data set [1] (1 mol % of dye) it was 652 nm; in data set [1] (2 mol % of dye), 651 nm; in data set [1] (5 mol % of dye), 651 nm; in data set [1] (10 mol % of dye), 649 nm. Moreover, the Extinction coefficient is 123,700 L mol^−1 cm^−1 in data set [1] (setting [4]); 132,000 L mol^−1 cm^−1 in data set [1] (1 mol % of dye); 130,200 L mol^−1 cm^−1 in data set [1] (2 mol % of dye); 123,700 L mol^−1 cm^−1 in data set [1] (5 mol % of dye); 110,900 L mol^−1 cm^−1 in data set [1] (10 mol % of dye). The Fluorescence max. was 685 nm in data set [2] (setting [4]); 681 nm in data set [2] (1 mol % of dye); 683 nm in data set [2] (2 mol % of dye); 685 nm in data set [2] (5 mol % of dye); 685 nm in data set [2] (10 mol % of dye). In addition, the Fluorescence quantum yield amounted to 0.12 in data set [2] (setting [4]); 0.17 in data set [2] (1 mol % of dye); 0.18 in data set [2] (2 mol % of dye); 0.12 in data set [2] (5 mol % of dye); 0.04 in data set [2] (10 mol % of dye).
As for `CCN1C(=CC=CC=CC2=[N+](CCCCS(=O)(=O)[O-])c3ccc(C(=O)NCCOCCC(F)(F)C(F)(F)C(F)(F)C(F)(F)C(F)(F)C(F)(F)C(F)(F)C(F)(F)F)cc3C2(C)C)C(C)(C)c2ccccc21` [Dye 11, 2-[5-(1-Ethyl)-1,3-dihydro-3,3-dimethyl-2H-indol-2-ylidene)-1,3-pentatrienyl]-5-{N-[2-(3,3,4,4,5,5,6,6,7,7,8,8,9,9,10,10,10-heptadecafluorodecyloxy)ethyl]-aminocarbonyl}-3,3-dimethyl-1-(4-sulfobutyl)-3H-indolium, internal salt, sodium salt], in data set [1] (setting [4]), the Absorption max. was determined as 653 nm and the Extinction coefficient is 145,000 L mol^−1 cm^−1. In data set [2] (setting [4]), this molecule registered a Fluorescence max. of 683 nm and a Fluorescence quantum yield of 0.14.
As to `CCN1C(=CC=CC=CC=CC2=[N+](CCCCS(=O)(=O)[O-])c3ccc(C(=O)NCCOCCC(F)(F)C(F)(F)C(F)(F)C(F)(F)C(F)(F)C(F)(F)C(F)(F)C(F)(F)F)cc3C2(C)C)C(C)(C)c2ccccc21` [Dye 12, 2-[5-(1-ethyl)-1,3-dihydro-3,3-dimethyl-2H-indol-2-ylidene)-1,3,5-heptatrienyl]-5-{N-[2-(3,3,4,4,5,5,6,6,7,7,8,8,9,9,10,10,10-heptadecafluorodecyloxy)-ethyl]-aminocarbonyl}-3,3-dimethyl-1-(4-sulfobutyl)-3H-indolium, internal salt, sodium salt], in data set [1] (setting [4]), the Absorption max. came to 754 nm and the Extinction coefficient is on record as 118,800 L mol^−1 cm^−1. In data set [2] (setting [4]), this molecule gave a Fluorescence max. of 788 nm and a Fluorescence quantum yield of 0.13.
With `CCN1C(=CC=CC=CC2=[N+](CCCCS(=O)(=O)[O-])c3ccc(C(=O)N(CCOCCC(F)(F)C(F)(F)C(F)(F)C(F)(F)C(F)(F)C(F)(F)C(F)(F)C(F)(F)F)CC(O)CO)cc3C2(C)C)C(C)(C)c2ccccc21` (stereo not shown) [Dye 13, 2-[5-(1-ethyl)-1,3-dihydro-3,3-dimethyl-2H-indol-2-ylidene)-1,3-pentatrienyl]-5-{N-[2-(3,3,4,4,5,5,6,6,7,7,8,8,9,9,10,10,10-heptadecafluorodecyloxy)ethyl]-N-(2,3-dihydroxypropyl)aminocarbonyl}-3,3-dimethyl-1-(4-sulfobutyl)-3H-indolium, internal salt, sodium salt], in data set [1] (setting [4]), the Absorption max. is 650 nm and the Extinction coefficient is listed as 150,700 L mol^−1 cm^−1. In data set [2] (setting [4]), the Fluorescence max. is given as 684 nm and the Fluorescence quantum yield was 0.16.
With `CCN1C(=CC=CC=CC=CC2=[N+](CCCCS(=O)(=O)[O-])c3ccc(C(=O)N(CCOCCC(F)(F)C(F)(F)C(F)(F)C(F)(F)C(F)(F)C(F)(F)C(F)(F)C(F)(F)F)CC(O)CO)cc3C2(C)C)C(C)(C)c2ccccc21` (stereo not shown) [Dye 14, 2-[5-(1-ethyl)-1,3-dihydro-3,3-dimethyl-2H-indol-2-ylidene)-1,3,5-heptatrienyl]-5-{N-[2-(3,3,4,4,5,5,6,6,7,7,8,8,9,9,10,10,10-heptadecafluorodecyloxy)-ethyl]-N-(2,3-dihydroxypropyl)aminocarbonyl}-3,3-dimethyl-1-(4-sulfobutyl)-3H-indolium, internal salt, sodium salt], in data set [1] (setting [4]), the Absorption max. turned out to be 753 nm and the Extinction coefficient was 124,100 L mol^−1 cm^−1. In data set [2] (setting [4]), this molecule had a Fluorescence max. of 789 nm and a Fluorescence quantum yield of 0.09.
As for `CC1(C)C(/C=C/C=C/C=C/C=C2\N(CCCCS(=O)(=O)O)c3ccc4ccccc4c3C2(C)C)=[N+](CCCCS(=O)(=O)[O-])c2ccc3ccccc3c21` [indocyanine green], in data set [3], the “fluorescence quantum yield (reference standard)” value is on record as 13%.
